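Five compound concentrations were applied to cells in 96-well plates for 48 hours; endpoints were derived by simple linear interpolation of the resulting dose-response curve. At the GI50, growth is halved. Definition used: TGI = concentration required for complete inhibition of growth.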
Key:
Experiment in all cases: NCI-60 cell line screen, 48 h
[1] = test system: NCI-H23 lung
[2] = test system: SNB-75 CNS
[3] = test system: NCI-H460 lung
[4] = test system: U251 CNS
[5] = test system: UO-31 renal
[6] = test system: OVCAR-5 ovarian
[7] = test system: M14 melanoma
[8] = test system: COLO 205 colon
[9] = test system: HS 578T breast
[10] = test system: DU-145 prostate
[11] = test system: HOP-92 NSCLC
[12] = test system: NCI-H522 lung
[13] = test system: HCT-116 colon
[14] = test system: CAKI-1 renal
[15] = test system: SF-539 CNS
[16] = test system: SK-OV-3 ovarian
[17] = test system: SK-MEL-28 melanoma
[18] = test system: SN12C renal
[19] = test system: IGROV1 ovarian
[20] = test system: MOLT-4 leukemia
[21] = test system: CCRF-CEM leukemia
[22] = test system: MCF7 breast
[23] = test system: OVCAR-4 ovarian
[24] = test system: OVCAR-8 ovarian
[25] = test system: HOP-62 NSCLC
[26] = test system: NCI-H226 lung
[27] = test system: ACHN renal
[28] = test system: HCT-15 colon
[29] = test system: HCC-2998 colon
[30] = test system: LOX IMVI melanoma
[31] = test system: EKVX NSCLC
[32] = test system: SF-268 CNS
[33] = test system: SR leukemia
[34] = test system: RXF 393 renal
[35] = test system: A498 renal
[36] = test system: KM12 colon
[37] = test system: K-562 leukemia
[38] = test system: SF-295 CNS
[39] = test system: A549 NSCLC
[40] = test system: UACC-62 melanoma
[41] = test system: SW-620 colon
[42] = test system: SNB-19 CNS
[43] = test system: T-47D breast
[44] = test system: TK-10 renal
[45] = test system: BT-549 breast
[46] = test system: MALME-3M melanoma
[47] = test system: UACC-257 melanoma
[48] = test system: OVCAR-3 ovarian
[49] = test system: SK-MEL-2 melanoma
[50] = test system: SK-MEL-5 melanoma
[51] = test system: PC-3 prostate
[52] = test system: RPMI-8226 leukemia
[53] = test system: NCI/ADR-RES ovarian
[54] = test system: MDA-MB-231 breast
[55] = test system: MDA-MB-435
[56] = test system: HL-60(TB) leukemia
[57] = test system: HT29 colon
[58] = test system: 786-0 renal

COc1cc(Nc2cc(O)c3c(=O)cc(-c4ccccc4)oc3c2)cc(OC)c1
GI50 [1]: 0.922 µM
TGI [1]: 40 µM
GI50 [2]: 0.193 µM
TGI [2]: 0.75 µM
GI50 [3]: 0.39 µM
TGI [3]: > 35.3 µM
GI50 [4]: 0.484 µM
TGI [4]: 18.3 µM
GI50 [5]: 0.763 µM
TGI [5]: 30.7 µM
GI50 [6]: 1.29 µM
TGI [6]: > 47.5 µM
GI50 [7]: 0.466 µM
TGI [7]: > 100 µM
GI50 [8]: 4.68 µM
TGI [8]: > 100 µM
GI50 [9]: 0.338 µM
GI50 [10]: 0.476 µM
TGI [10]: 20.9 µM
GI50 [11]: 0.944 µM
TGI [11]: 17.7 µM
GI50 [12]: 0.203 µM
TGI [12]: 4.39 µM
GI50 [13]: 0.407 µM
TGI [13]: > 100 µM
GI50 [14]: 0.335 µM
TGI [14]: 16.8 µM
GI50 [15]: 0.338 µM
TGI [15]: 1.93 µM
GI50 [16]: 0.548 µM
TGI [16]: 18.6 µM
GI50 [17]: 2.84 µM
TGI [17]: > 100 µM
GI50 [18]: 0.736 µM
TGI [18]: 75.5 µM
GI50 [19]: 0.409 µM
TGI [19]: 32.4 µM
GI50 [20]: 0.595 µM
TGI [20]: > 100 µM
GI50 [21]: 0.411 µM
TGI [21]: > 100 µM
GI50 [22]: 0.0357 µM
TGI [22]: > 100 µM
GI50 [23]: 8.61 µM
TGI [23]: 41.9 µM
GI50 [24]: 0.9 µM
TGI [24]: 23.9 µM
GI50 [25]: 0.795 µM
TGI [25]: 20.9 µM
GI50 [26]: 2.57 µM
TGI [26]: 48 µM
GI50 [27]: 0.628 µM
TGI [27]: > 100 µM
GI50 [28]: 0.104 µM
TGI [28]: > 100 µM
GI50 [29]: 2.31 µM
TGI [29]: > 54 µM
GI50 [30]: 0.581 µM
TGI [30]: > 100 µM
GI50 [31]: 0.769 µM
TGI [31]: > 100 µM
GI50 [32]: 0.909 µM
TGI [32]: 30.9 µM
GI50 [33]: 0.253 µM
TGI [33]: > 100 µM
GI50 [34]: 0.329 µM
TGI [34]: 1.83 µM
GI50 [35]: 0.351 µM
TGI [35]: 9.03 µM
GI50 [36]: 0.282 µM
TGI [36]: > 39.2 µM
GI50 [37]: 0.311 µM
TGI [37]: > 100 µM
GI50 [38]: 0.389 µM
TGI [38]: 8.33 µM
GI50 [39]: 0.788 µM
TGI [39]: 97.3 µM
GI50 [40]: 0.387 µM
TGI [40]: > 37.4 µM
GI50 [41]: 0.377 µM
TGI [41]: > 100 µM
GI50 [42]: 0.533 µM
TGI [42]: 22.8 µM
GI50 [43]: 0.251 µM
TGI [43]: > 100 µM
GI50 [44]: 4.94 µM
TGI [44]: 46.6 µM
GI50 [45]: 0.651 µM
TGI [45]: > 52.3 µM
GI50 [46]: 0.754 µM
TGI [46]: > 100 µM
GI50 [47]: 39.1 µM
TGI [47]: > 100 µM
GI50 [48]: 0.274 µM
TGI [48]: 1.64 µM
GI50 [49]: 0.537 µM
TGI [49]: 40.4 µM
GI50 [50]: 0.169 µM
TGI [50]: 9.97 µM
GI50 [51]: 0.815 µM
TGI [51]: > 52.1 µM
GI50 [52]: 0.471 µM
TGI [52]: > 100 µM
GI50 [53]: 0.437 µM
TGI [53]: 25 µM
GI50 [54]: 0.964 µM
TGI [54]: 18.4 µM
GI50 [55]: 0.147 µM
TGI [55]: 0.498 µM
GI50 [56]: 0.355 µM
GI50 [57]: 3.33 µM
TGI [57]: > 36.9 µM
GI50 [58]: 1.34 µM
TGI [58]: 21.9 µM

Oc1ccc(OCCOc2ccc(O)cc2)cc1
GI50 [1]: 4.5 µM
TGI [1]: > 100 µM
GI50 [2]: > 100 µM
TGI [2]: > 100 µM
GI50 [3]: 3.57 µM
TGI [3]: > 100 µM
GI50 [4]: 4.41 µM
TGI [4]: > 100 µM
GI50 [5]: 1.47 µM
TGI [5]: 8.83 µM
GI50 [6]: 10.4 µM
TGI [6]: > 100 µM
GI50 [7]: 3.03 µM
TGI [7]: 23.5 µM
GI50 [8]: 21.3 µM
TGI [8]: 60.6 µM
GI50 [9]: > 100 µM
TGI [9]: > 100 µM
GI50 [10]: 2.8 µM
TGI [10]: > 100 µM
GI50 [11]: 3.65 µM
TGI [11]: > 100 µM
GI50 [12]: 1.72 µM
TGI [12]: 55.9 µM
GI50 [13]: 6.24 µM
TGI [13]: > 100 µM
GI50 [14]: 0.987 µM
TGI [14]: 20.6 µM
GI50 [15]: 2.2 µM
TGI [15]: 28.2 µM
GI50 [16]: 99.2 µM
TGI [16]: > 100 µM
GI50 [17]: 88.9 µM
TGI [17]: > 100 µM
GI50 [18]: 5.72 µM
TGI [18]: > 100 µM
GI50 [19]: 5.94 µM
TGI [19]: > 100 µM
GI50 [20]: 8.82 µM
TGI [20]: > 100 µM
GI50 [21]: 2.27 µM
TGI [21]: > 100 µM
GI50 [22]: 4.77 µM
TGI [22]: > 100 µM
GI50 [23]: > 100 µM
TGI [23]: > 100 µM
GI50 [24]: 3.37 µM
TGI [24]: > 100 µM
GI50 [25]: 8.97 µM
TGI [25]: > 100 µM
GI50 [26]: 4.98 µM
TGI [26]: > 100 µM
GI50 [27]: 0.964 µM
TGI [27]: > 100 µM
GI50 [28]: 8.55 µM
TGI [28]: > 100 µM
GI50 [29]: 3.36 µM
TGI [29]: 95.9 µM
GI50 [30]: 1.24 µM
TGI [30]: > 100 µM
GI50 [31]: 11.2 µM
TGI [31]: > 100 µM
GI50 [32]: 3.94 µM
TGI [32]: > 100 µM
GI50 [33]: 7.41 µM
TGI [33]: > 100 µM
GI50 [34]: 6.18 µM
TGI [34]: > 100 µM
GI50 [35]: 3.17 µM
TGI [35]: > 100 µM
GI50 [36]: 2.26 µM
TGI [36]: > 100 µM
GI50 [37]: 3.08 µM
TGI [37]: > 100 µM
GI50 [38]: 2.36 µM
TGI [38]: 16.6 µM
GI50 [39]: 3.5 µM
TGI [39]: > 100 µM
GI50 [40]: 2.45 µM
TGI [40]: 13.8 µM
GI50 [41]: 3.68 µM
TGI [41]: > 100 µM
GI50 [42]: 27.8 µM
TGI [42]: > 100 µM
GI50 [43]: 4.15 µM
TGI [43]: > 100 µM
GI50 [44]: 6.65 µM
TGI [44]: > 100 µM
GI50 [45]: 8.08 µM
TGI [45]: > 100 µM
GI50 [46]: 3.69 µM
TGI [46]: > 100 µM
GI50 [47]: 6.08 µM
TGI [47]: > 100 µM
GI50 [48]: 5.67 µM
TGI [48]: > 100 µM
GI50 [49]: 8.26 µM
TGI [49]: 82.6 µM
GI50 [50]: 1.5 µM
TGI [50]: 4.36 µM
GI50 [51]: 2.75 µM
TGI [51]: > 100 µM
GI50 [52]: 9.24 µM
TGI [52]: > 100 µM
GI50 [53]: 3.41 µM
TGI [53]: > 100 µM
GI50 [54]: 0.414 µM
TGI [54]: > 100 µM
GI50 [55]: 3.22 µM
TGI [55]: > 100 µM
GI50 [56]: 5.22 µM
TGI [56]: > 100 µM
GI50 [57]: 12.7 µM
TGI [57]: > 100 µM
GI50 [58]: 3.26 µM
TGI [58]: > 100 µM

Reference: PubChem BioAssay (NCI)
